In ChEMBL document CHEMBL1201862, “PubChem BioAssay data set” (2004):
Activity calls are given as the source filed them.

Columns and labels:
Protein RecA = target: T1, Protein RecA (Mycobacterium tuberculosis, UniProt P9WHJ3); assay: Fluorescence Cell-Free Homogeneous Dose Retest to Identify Inhibitors of RecA-Intein Splicing Activity. [Related pubchem assays (depositor defined):AID2097, AID2223, AID489010, AID492950]; assay type: functional
T1 sequence (P9WHJ3 whole entry): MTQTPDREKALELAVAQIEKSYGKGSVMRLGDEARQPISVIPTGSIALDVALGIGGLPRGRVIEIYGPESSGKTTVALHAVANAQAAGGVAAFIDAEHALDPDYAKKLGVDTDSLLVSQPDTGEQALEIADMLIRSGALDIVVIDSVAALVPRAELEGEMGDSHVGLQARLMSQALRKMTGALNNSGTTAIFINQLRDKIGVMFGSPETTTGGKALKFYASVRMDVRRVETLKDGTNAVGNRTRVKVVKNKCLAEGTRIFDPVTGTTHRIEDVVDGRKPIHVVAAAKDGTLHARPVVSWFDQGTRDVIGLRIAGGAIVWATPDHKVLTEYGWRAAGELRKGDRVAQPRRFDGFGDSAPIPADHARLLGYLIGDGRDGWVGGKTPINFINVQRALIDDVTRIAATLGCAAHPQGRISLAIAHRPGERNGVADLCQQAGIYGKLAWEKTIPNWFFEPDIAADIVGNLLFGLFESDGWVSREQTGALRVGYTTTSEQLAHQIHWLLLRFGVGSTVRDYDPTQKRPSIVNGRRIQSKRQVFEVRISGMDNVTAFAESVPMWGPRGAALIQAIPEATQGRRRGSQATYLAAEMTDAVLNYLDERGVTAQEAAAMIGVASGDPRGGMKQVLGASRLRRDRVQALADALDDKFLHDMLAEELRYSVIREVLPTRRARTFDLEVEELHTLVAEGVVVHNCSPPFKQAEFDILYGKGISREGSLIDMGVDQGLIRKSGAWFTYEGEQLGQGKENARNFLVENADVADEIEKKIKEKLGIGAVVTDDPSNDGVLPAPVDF

Paired box protein Pax-8 = Paired box protein Pax-8 (Homo sapiens, UniProt Q06710); assay: PAX8 transcriptional activity inhibition in RMG-I – RMG-I cells, luciferase, cherry-pick, dose response (AID 687027); assay type: functional, cell-based;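 further: luciferase reporter driven by Pax8 target thyroperoxidase promoter measured by SteadyGlo luminescence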
CHO = CHO cell viability loss, potency – luminescence, cytotoxicity control for TLR9-MyD88 binding inhibitor project, dose response (AID 588339); assay type: functional, cell-based, hamster; details: Cricetulus griseus;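 further: CHO cells stably coexpressing TLR9 and MyD88 fusions from primary screen; compound exposure lasted 48 hours before viability readout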
Beta Lactamase = Beta Lactamase (Pseudomonas aeruginosa, UniProt Q932Y6); assay: BLA reporter interference, concentration series – BLA reporter cells, FRET fluorescence, artefact control for TLR9-MyD88 binding inhibitor project, dose response (AID 588341); assay type: cell-based;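 further: cell based assay in CHO-K1 cells stably expressing beta-lactamase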
[1] = target: T2, Heat shock factor protein 1 (Mus musculus, UniProt P38532); assay: decrease of HSF1-responsive luciferase luminescence – cell-based, NIH3T3, dose retest, confirmation (AID 2382); assay type: functional;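 further: NIH3T3 fibroblasts with HSF1-driven luciferase reporter stressed by proteasome inhibitor MG132; luminescence from HSF1-driven luciferase expression after 8 hours of MG132 stress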
T2 sequence (P38532 whole entry): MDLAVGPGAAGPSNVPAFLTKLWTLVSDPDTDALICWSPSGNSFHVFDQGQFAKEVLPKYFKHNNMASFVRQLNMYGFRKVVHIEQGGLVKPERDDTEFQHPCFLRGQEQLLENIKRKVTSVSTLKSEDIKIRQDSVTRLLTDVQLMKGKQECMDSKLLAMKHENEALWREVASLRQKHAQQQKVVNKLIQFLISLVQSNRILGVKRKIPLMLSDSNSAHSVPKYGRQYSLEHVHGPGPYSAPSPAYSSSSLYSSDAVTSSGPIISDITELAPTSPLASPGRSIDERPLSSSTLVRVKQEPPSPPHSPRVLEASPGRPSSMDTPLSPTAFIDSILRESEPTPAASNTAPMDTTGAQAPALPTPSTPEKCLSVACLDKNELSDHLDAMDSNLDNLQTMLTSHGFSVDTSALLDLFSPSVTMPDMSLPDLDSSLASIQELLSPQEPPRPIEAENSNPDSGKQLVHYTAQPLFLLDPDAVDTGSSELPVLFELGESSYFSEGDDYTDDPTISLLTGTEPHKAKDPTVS

[2] = target: T3, Replicative DNA helicase DnaB (Mycobacterium tuberculosis, UniProt P9WMR3); assay: DnaB intein splicing inhibitors, dose response, biochemical, cell-free fluorescence (AID 449749); assay type: functional
T3 sequence (P9WMR3 whole entry): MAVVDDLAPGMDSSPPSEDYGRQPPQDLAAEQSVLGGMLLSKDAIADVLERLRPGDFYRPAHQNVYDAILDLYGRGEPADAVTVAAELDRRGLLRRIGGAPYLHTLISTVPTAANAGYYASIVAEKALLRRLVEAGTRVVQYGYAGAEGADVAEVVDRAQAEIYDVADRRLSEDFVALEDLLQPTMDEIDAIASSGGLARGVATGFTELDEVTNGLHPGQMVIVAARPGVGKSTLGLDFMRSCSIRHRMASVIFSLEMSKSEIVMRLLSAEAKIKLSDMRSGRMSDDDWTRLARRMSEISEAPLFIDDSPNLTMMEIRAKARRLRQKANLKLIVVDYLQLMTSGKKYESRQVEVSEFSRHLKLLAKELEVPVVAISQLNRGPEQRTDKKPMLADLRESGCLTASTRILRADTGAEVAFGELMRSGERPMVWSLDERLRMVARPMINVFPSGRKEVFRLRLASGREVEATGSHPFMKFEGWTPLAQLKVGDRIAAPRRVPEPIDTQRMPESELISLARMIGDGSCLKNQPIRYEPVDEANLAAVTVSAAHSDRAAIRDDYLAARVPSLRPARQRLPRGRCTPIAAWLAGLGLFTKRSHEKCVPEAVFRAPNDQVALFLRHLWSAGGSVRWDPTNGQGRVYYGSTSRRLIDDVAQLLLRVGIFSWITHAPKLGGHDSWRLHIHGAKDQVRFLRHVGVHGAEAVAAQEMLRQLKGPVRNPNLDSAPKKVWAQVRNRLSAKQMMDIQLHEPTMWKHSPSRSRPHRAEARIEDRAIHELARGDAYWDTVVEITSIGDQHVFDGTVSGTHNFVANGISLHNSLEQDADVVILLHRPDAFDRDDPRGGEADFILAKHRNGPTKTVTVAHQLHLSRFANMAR

[3] = Trypanosoma cruzi growth suppression in host cells – NIH3T3 host cells, beta-gal luminescence, confirmation (AID 2044); assay type: functional, cell-based;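 further: intracellular parasites grown in NIH/3T3 mouse fibroblasts as host cells; luminescent beta-galactosidase reporter signal from transgenic T. cruzi replicating inside host cells; inhibitors lower the luminescence signal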
[4] = NIH3T3 cell viability loss – ATP luminescence, mouse fibroblasts, counter-screen, dose response (AID 2010); assay type: functional, cell-based;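 further: cells exposed to compound for about 90 hours before reading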
HEK293 [5] = assay: SAR Analysis of small molecule inhibitors of both B-cell and T-cell specific antigen receptor-induced NF-kB activation in a HEK-293T cell line using a luminescence assay. [Related pubchem assays (depositor defined):AID435003, AID435022, AID465, AID489019, AID489029]; assay type: functional, cell-based; details: Homo sapiens
HEK293 [6] = assay: HEK293T cell viability loss, resazurin readout – resazurin fluorescence, cytotoxicity control for NF-kB activator project, SAR follow-up (AID 493251); assay type: functional, cell-based; details: Homo sapiens
Jurkat = assay: SAR Analysis of small molecule inhibitors of both B-cell and T-cell specific antigen receptor-induced NF-kB activation in a Jurkat cell line using a luminescence assay. [Related pubchem assays (depositor defined):AID435003, AID435022, AID465, AID489029]; assay type: functional, cell-based; details: Homo sapiens
[7] = target: T4, Sentrin-specific protease 6 (Homo sapiens, UniProt Q9GZR1); assay: inhibition of human SENP6 catalytic domain – biochemical, luminescence, set 2, SAR follow-up (AID 588598); assay type: functional
T4 sequence (Q9GZR1 whole entry): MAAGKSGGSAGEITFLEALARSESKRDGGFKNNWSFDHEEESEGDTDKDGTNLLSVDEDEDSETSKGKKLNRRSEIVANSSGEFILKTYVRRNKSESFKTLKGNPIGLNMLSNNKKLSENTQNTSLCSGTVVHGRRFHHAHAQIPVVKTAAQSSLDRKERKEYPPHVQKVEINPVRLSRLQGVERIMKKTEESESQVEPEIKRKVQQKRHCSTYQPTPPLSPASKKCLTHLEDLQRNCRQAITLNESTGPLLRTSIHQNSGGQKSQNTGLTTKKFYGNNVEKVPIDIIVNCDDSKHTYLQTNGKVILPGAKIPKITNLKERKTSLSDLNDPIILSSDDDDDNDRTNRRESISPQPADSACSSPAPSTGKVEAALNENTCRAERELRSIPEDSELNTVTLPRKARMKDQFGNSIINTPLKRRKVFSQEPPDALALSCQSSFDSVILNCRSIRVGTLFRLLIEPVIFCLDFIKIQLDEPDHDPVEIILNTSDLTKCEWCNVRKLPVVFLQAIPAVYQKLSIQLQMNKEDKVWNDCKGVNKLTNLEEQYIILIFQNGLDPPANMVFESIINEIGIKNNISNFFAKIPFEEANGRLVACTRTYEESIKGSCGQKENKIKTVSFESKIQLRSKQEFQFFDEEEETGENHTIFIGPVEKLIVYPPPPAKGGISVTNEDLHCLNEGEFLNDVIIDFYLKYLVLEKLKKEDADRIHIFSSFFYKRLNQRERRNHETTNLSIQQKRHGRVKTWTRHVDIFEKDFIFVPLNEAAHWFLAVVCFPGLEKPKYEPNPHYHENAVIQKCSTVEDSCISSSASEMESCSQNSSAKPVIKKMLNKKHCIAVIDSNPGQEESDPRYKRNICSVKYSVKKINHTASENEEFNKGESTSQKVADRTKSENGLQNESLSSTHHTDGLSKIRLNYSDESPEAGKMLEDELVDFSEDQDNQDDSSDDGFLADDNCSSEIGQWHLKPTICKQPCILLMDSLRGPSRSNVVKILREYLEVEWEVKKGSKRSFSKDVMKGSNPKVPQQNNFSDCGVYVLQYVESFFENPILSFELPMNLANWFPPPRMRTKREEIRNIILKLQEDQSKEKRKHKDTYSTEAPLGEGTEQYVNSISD

Caspase-3 = target: T5, Caspase-3 (Homo sapiens, UniProt P42574); assay: inhibition of recombinant caspase-3 activity – biochemical, luminescence, set 2, selectivity assay for SENP protease inhibitor project, SAR follow-up (AID 588599); assay type: functional
T5 sequence (P42574 whole entry): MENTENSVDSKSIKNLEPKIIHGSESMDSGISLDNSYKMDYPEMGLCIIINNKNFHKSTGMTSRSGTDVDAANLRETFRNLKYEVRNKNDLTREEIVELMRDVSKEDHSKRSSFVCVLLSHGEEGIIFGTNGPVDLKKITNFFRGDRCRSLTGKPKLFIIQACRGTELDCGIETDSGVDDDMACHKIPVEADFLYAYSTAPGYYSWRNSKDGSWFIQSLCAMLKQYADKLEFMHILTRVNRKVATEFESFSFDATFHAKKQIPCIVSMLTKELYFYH

[8] = target: T6, Sentrin-specific protease 8 (Homo sapiens, UniProt Q96LD8); assay: inhibition of sentrin protease 8 – biochemical, luminescence, set 2, SAR follow-up (AID 588601); assay type: functional
T6 sequence (Q96LD8 whole entry): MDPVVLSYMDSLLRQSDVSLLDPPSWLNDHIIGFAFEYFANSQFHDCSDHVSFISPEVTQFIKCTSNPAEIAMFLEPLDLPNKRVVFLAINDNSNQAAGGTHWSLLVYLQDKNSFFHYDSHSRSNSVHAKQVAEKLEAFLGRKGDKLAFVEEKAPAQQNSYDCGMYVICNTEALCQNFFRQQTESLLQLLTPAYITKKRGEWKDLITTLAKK

[9] = target: T7, Sentrin-specific protease 7 (Homo sapiens, UniProt Q9BQF6); assay: inhibition of human SENP7 cleavage activity – biochemical, luminescence, set 2, SAR follow-up (AID 588600); assay type: functional
T7 sequence (Q9BQF6 whole entry): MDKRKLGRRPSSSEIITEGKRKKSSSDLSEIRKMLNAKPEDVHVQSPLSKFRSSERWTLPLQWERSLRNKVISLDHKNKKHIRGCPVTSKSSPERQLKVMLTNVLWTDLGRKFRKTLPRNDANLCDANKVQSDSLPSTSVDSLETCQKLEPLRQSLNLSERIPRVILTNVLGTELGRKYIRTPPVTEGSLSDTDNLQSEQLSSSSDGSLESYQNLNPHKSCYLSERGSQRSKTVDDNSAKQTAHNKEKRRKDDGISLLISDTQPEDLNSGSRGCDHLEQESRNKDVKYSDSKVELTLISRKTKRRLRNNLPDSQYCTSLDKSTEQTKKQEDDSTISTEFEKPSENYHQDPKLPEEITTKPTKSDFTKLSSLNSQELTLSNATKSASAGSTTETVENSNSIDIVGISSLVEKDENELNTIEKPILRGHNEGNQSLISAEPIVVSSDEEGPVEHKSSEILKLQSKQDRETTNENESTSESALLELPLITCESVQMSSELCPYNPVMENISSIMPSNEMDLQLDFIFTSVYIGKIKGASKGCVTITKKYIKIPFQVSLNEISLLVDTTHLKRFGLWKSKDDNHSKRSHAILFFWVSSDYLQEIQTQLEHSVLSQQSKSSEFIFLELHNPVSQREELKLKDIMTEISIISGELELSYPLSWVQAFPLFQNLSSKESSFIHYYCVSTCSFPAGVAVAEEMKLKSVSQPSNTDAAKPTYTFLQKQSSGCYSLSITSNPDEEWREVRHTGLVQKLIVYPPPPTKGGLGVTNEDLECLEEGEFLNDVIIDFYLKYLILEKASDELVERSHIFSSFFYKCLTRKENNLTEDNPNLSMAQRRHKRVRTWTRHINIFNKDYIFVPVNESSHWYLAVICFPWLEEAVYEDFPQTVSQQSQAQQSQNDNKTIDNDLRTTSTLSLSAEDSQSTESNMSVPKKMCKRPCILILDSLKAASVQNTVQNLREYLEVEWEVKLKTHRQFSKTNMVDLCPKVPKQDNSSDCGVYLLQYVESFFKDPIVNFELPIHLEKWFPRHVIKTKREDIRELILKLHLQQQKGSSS

Beta Lactamase, sequence (Q932Y6 whole entry): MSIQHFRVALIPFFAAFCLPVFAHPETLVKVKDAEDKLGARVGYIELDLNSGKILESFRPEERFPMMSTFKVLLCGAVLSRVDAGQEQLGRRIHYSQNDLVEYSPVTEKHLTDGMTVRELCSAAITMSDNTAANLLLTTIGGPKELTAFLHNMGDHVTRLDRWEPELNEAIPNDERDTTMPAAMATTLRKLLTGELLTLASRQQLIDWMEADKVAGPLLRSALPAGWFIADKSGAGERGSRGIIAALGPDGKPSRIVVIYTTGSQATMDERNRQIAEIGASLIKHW
Paired box protein Pax-8, sequence (Q06710 whole entry, the tested form may be a part): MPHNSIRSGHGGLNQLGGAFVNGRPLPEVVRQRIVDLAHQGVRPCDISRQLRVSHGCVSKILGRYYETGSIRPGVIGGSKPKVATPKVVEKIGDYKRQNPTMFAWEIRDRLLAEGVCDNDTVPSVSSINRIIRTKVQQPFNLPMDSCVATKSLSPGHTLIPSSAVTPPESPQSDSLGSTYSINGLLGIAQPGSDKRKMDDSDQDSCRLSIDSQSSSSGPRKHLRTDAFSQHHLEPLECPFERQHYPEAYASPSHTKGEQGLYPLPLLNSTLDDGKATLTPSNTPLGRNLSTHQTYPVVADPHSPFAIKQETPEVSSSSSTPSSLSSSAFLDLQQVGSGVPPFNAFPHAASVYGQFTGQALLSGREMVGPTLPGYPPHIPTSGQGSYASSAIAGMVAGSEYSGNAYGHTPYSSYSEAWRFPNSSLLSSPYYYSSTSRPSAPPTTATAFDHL

Cn1c(=O)c([N+](=O)[O-])c(Cl)c2ccccc21
EC50 (Protein RecA): 4.25 µM (active)
AC50 (Paired box protein Pax-8): 6.65 µM (active)
IC50 (CHO): 1.18 µM (active)
IC50 (Beta Lactamase): 17.8 µM (inactive)
EC50 [1]: 4.3 µM (active)
AC50 [2]: 5.18 µM (active)
EC50 [3]: 1.87 µM (active)
EC50 [4]: 3.97 µM (active)

Cc1ccc2cccc(N)c2n1
IC50 (HEK293 [5]): > 79 µM (inactive)
IC50 (HEK293 [6]): > 80 µM (inactive)
IC50 (Jurkat): > 79 µM (inactive)

CC(=O)Nc1ccc2nc(NC(=O)c3n[nH]c4ccccc34)sc2c1
IC50 [7]: > 99 µM (inactive)
IC50 (Caspase-3): 4.41 µM (active)
IC50 [8]: 40.3 µM (active)
IC50 [9]: > 99 µM (inactive)
